From patent US11142529B2 (priority 2013, dated 2021)

Columns and labels:
aged-impaired (AI) rats [1] = assay: Morris water maze behavioral task (Example 109); format: in vivo, rat; details: 100 μg ICV
Description: The effects of 6,6 dimethyl-3-(3-hydroxypropyl)thio-1-(thiazol-2-yl)-6,7-dihydro-2-benzothiophen-4(5H)-one on the in vivo spatial memory retention of aged-impaired (AI) rats were assessed in a Morris water maze behavioral task. A water maze is a pool surrounded with a novel set of patterns relative to the maze.
Cognitively impaired aged rats were implanted unilaterally with a cannula into the lateral ventricle. Stereotaxic coordinates were 1.0 mm posterior to bregma, 1.5 mm lateral to midline, and 3.5 mm ventral to the skull surface. After about a week of recovery, the rats were pre-trained in a water maze for 2 days (6 trials per day) to locate a submerged escape platform hidden underneath the surface of the pool, in which the escape platform location varied from day to day. No intracerebroventricular (ICV) infusion was given during pre-training.
After pre-training, rats received ICV infusion of either 100 μg 6,6 dimethyl-3-(3-hydroxypropyl)thio-1-(thiazol-2-yl)-6,7-dihydro-2-benzothiophen-4(5H)-one (n=6) in 5 μl DMSO or vehicle DMSO (n=5) 40 min prior to water maze training and testing. Training consisted of 8 trials per day for 2 days where the hidden escape platform remained in the same location. Rats were given 60 seconds to locate the platform with a 60 seconds inter-trial interval. The rats were given a probe test (120 seconds) 24 hr after the end of training where the escape platform was removed. During the training, there were 4 blocks, where each block had 4 training trials.
During a test trial 24 hr after training, the escape platform was removed. The search/swim pattern of the rats was used to measure whether the rats remember where the escape platform was located during pre-trial training in order to test for the long-term memory of the rats. In this trial, “target annulus” is a designated area 1.5 times the size of the escape platform around the area where the platform was located during pre-trial training. “Opposite annulus” is a control area of the same size as the size of the target annulus, which is located opposite to the target annulus in the pool. If the rats had good long term memory, they would tend to search in the area surrounding the location where the platform was during the pre-trial training (i.e., the “target” annulus; and not the “opposite” annulus). “Time in annulus” is the amount of time in seconds that the rat spent in the target or opposite annulus area. “Number (#) of crossings” in annulus is the number of times the rat swam across the target or opposite annulus area.

GABAA receptors (α5β2γ2) = biological target: T1, GABAA receptors (α5β2γ2) (Homo sapiens, UniProt P18507+P31644); assay: Positive allosteric modulator activity, potentiation of EC20 GABA current in oocytes; format: cell-based; details: read-out: GABA α5 functional potentiation
T1 construct: expressed in transfected cells; host or cells: oocytes injected with a mix of alpha, beta and gamma cDNA (1:1:10 by weight)
T1 sequence (P31644 32-462): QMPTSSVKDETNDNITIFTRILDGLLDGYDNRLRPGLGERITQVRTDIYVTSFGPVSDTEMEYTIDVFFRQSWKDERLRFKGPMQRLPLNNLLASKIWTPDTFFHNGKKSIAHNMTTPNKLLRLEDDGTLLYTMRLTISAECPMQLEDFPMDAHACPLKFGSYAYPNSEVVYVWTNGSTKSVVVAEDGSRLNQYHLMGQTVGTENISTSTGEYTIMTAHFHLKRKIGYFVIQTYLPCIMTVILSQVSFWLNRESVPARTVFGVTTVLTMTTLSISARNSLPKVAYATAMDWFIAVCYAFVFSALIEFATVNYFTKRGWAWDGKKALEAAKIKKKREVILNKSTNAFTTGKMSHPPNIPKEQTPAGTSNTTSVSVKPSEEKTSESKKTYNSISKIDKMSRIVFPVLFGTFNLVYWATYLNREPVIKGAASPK
T1 sequence (P47870 25-512 partner limits assumed): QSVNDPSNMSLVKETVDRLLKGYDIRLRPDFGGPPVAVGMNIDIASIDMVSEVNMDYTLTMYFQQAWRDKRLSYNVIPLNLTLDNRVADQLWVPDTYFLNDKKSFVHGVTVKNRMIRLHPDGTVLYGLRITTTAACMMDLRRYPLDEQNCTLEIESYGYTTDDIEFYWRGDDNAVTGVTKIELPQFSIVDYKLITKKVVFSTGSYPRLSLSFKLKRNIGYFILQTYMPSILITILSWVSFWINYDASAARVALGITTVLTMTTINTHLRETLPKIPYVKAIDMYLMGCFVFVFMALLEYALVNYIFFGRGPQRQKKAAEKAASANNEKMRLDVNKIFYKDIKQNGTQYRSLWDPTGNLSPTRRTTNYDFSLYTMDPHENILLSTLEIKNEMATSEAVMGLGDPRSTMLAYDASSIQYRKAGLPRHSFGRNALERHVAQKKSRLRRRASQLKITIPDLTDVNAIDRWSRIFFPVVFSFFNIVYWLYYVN
T1 sequence (P18507 40-475): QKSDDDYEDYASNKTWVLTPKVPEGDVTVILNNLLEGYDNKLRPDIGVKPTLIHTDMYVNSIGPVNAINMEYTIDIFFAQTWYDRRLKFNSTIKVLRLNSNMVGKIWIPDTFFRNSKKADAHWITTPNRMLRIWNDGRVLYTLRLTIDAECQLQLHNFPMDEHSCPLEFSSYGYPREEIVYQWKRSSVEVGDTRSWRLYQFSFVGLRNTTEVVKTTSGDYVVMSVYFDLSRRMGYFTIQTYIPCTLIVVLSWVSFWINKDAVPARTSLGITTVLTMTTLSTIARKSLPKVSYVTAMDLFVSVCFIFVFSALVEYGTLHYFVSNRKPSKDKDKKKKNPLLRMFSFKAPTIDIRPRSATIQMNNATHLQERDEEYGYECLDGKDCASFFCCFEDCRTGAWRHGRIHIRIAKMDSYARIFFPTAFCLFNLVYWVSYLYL
Description: On day 1, 1 ng/32 nL of GABAA […] cDNA was injected into one oocyte. Test starts on day 2. The cDNA injected to the oocytes was a mix of alpha, beta and gamma, their ratio is 1:1:10 (by weight) and the total weight of the mixed 3 subunits to be injected in one oocyte was 1 ng in 32 nl volume. The injected oocytes can also be tested on day 3. In such case, the cDNA amount injected to the oocytes should be reduced by 20%.
1). 8 oocytes were placed in 8 chambers of OpusXpress and superfused with Modified Barth's Saline (MBS) at 3 mL/min. Glass electrodes back-filled with 3M KCl (0.5-3 megaohms) were used.
3). […] Oocytes were washed with MBS for 5-10 min.
2). […] Divide Itest by IGABA to obtain potentiation (%).
3). Discard all tested oocytes, new oocytes were used and the above steps 1) and 2) were repeated to test second concentration of the same compound. Each oocyte was used for only one concentration test for a single test compound. The steps were repeated for other test compounds.

α5β3γ2 GABAA receptors = biological target: T2, α5β3γ2 GABAA receptors (Homo sapiens, UniProt P18507+P31644); assay: Binding activity of test compounds on GABAAR ([3H]Ro15-1788 inhibition, Ltk cell membranes)
T2 construct: membranes
T2 sequence (P31644 32-462): as the sequence (P31644 32-462) above
T2 sequence (P28472 26-473 partner): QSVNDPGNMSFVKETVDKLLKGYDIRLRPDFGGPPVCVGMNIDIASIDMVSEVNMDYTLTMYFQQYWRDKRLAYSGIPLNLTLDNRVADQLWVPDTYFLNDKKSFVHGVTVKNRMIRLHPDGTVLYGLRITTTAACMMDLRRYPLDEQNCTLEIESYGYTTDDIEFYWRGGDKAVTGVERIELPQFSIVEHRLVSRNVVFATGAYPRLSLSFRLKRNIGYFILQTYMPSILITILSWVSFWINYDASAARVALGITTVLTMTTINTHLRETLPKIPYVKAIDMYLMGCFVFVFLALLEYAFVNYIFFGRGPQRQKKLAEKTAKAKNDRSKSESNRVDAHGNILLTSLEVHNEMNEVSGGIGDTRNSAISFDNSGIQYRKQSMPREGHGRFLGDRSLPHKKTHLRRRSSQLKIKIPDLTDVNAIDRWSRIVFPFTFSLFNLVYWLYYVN
T2 sequence (P18507 40-475): as the sequence (P18507 40-475) above
Description: The binding was performed on Ltk cells stably expressing GABAA receptors: α1β1γ2, α2β3γ2, α3β3γ2 and α5β3γ2 (provided by Merck Co., NJ, USA). Cells were seeded in 100 mm culture plates in DMEM/F12 medium containing 10% serum and antibiotics in 5% C02 and allowed to grow for 1-2 days. GABAAR expression was then induced by dexamethasone as follows: 0.5 μM for 1 day for α5 containing and 2 μM for 3 days for α1, α2 and α3 containing GABAARs. After induction, cells were collected by scraping into Dulbecco's Phosphate buffered saline (DPBS, pH 7.4, Invitrogen, Carlsbad, Calif., USA) and centrifuged at 150×g for 10 min. The pellet was washed twice by re-suspension and centrifugation. The cell pellets from at least 5 different preps were combined, suspended in the binding assay buffer (50 mM KH2PO4; 1 mM EDTA; 0.2 M KCl, pH 7.4) and membranes prepared by sonication (3-5 times, 30 sec) using Branson Sonifier 150 (G.Heinmann, Germany). Protein content was determined using BCA assay (Bio-Rad Labs, Reinach, Switzerland) with Bovine Serum Albumin (Sigma Aldrich, St. Louis, Mo., USA) as the standard. Aliquots were prepared and stored at −20° C. for further use in binding assays.
Saturation binding curves were obtained by incubating membranes with increasing concentrations (0.01-8 nM) of [^3H]Ro15-1788 (Flumazepil, 75-85 Ci/mmol, PerkinElmer, MA, USA), with nonspecific binding measured in the presence of 10 μM diazepam.
All binding assays were performed for 1 h at 4° C. in assay buffer. The total assay volume was 0.5 ml containing 0.2 mg/ml protein for α5 and 0.4 mg/ml for α1, α2, and α3 containing GABAAR membranes. Incubations were terminated by filtration through GF/B filters using a 24-Cell Harvestor (Brandel, Gaithersburg, Md., USA) followed by 3 washes with ice-cold assay buffer. Filters were transferred to scintillation vials, 5 ml scintillation liquid added, vortex-mixed and kept in dark. Next day, radioactivity was obtained using a scintillation counter (Beckman Coulter, Brea, Calif., USA). All assays were performed in triplicate.
Saturation and inhibition curves were obtained using GraphPad Prism software (GraphPad Software, Inc., CA, USA).

[2] = biological target: T3, α5-containing GABAA receptor (Rattus norvegicus, UniProt P18508+P19969); format: in vivo; details: i.v.; for effect on Ro 15-4513 binding in hippocampus: 0.01-10 mg/kg
T3 construct: occupancy in the hippocampus (a region of high GABAAα5 receptor density); from tissue; host or cells: rat brain in vivo; hippocampus versus cerebellum
T3 sequence (P19969 32-464 limits assumed): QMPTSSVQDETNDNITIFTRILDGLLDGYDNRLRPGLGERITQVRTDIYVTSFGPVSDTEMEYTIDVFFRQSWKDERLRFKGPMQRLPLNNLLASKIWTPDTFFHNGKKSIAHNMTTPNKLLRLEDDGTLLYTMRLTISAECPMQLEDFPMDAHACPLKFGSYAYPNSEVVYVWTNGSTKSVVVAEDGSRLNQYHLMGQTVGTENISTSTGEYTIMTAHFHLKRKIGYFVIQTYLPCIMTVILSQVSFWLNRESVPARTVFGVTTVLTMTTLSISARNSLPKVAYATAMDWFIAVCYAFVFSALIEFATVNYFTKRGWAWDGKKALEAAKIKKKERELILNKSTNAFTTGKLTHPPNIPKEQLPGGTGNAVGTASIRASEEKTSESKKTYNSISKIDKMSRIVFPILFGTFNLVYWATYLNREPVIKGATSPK
T3 sequence (P18508 39-466): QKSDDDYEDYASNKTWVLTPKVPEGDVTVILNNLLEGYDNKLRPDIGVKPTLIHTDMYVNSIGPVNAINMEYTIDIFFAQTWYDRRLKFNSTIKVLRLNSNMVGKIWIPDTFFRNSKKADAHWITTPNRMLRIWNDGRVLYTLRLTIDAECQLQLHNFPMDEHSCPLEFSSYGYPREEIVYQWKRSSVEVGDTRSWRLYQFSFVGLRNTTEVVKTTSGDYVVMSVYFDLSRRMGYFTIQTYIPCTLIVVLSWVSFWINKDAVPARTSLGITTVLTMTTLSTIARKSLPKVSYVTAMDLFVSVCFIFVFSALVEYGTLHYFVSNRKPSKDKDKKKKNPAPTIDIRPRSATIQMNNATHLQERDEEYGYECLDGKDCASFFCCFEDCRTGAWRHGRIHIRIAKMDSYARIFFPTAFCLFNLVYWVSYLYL

[3] = system: α5-containing GABAA receptor; format: in vivo, rat; details: 0.01-10 mg/kg, i.v.
GABAAα5 receptor = biological target: T4, GABAAα5 receptor (Rattus norvegicus, UniProt P18508+P19969); assay: GABAA α5 receptor occupancy with Ro 15-4513 tracer (Example 107B); format: in vivo, Long Evans rats
T4 construct: occupancy in the hippocampus (a region of high GABAAα5 receptor density); from tissue; host or cells: rat brain in vivo; hippocampus versus cerebellum
T4 sequence (P19969 32-464 limits assumed): as the sequence (P19969 32-464 limits assumed) above
T4 sequence (P18508 39-466): as the sequence (P18508 39-466) above
Description: Food and water were available ad libitum.

MAM-treated rats = details: cited from earlier work
aged-impaired (AI) rats [4] = assay: Radial Arm Maze (RAM) behavioral task, four-hour delay (Example 108); format: in vivo, rat
Description: The same experiment was repeated using the same vehicle control and doses of ethyl 3-methoxy-7-methyl-9H-benzo[f]imidazo[1,5-a][1,2,4]triazolo[4,3-d][1,4]diazepine-10-carboxylate, where the vehicle control was tested 5 times, the 3 mg/kg dose of ethyl 3-methoxy-7-methyl-9H-benzo[f]imidazo[1,5-a][1,2,4]triazolo[4,3-d][1,4]diazepine-10-carboxylate was tested 4 times, and the other doses of ethyl 3-methoxy-7-methyl-9H-benzo[f]imidazo[1,5-a][1,2,4]triazolo[4,3-d][1,4]diazepine-10-carboxylate were tested twice.
Parametric statistics (paired t-tests) was used to compare the retention test performance of the AI rats in the four-hour delay version of the RAM task in the context of different doses of ethyl 3-methoxy-7-methyl-9H-benzo[f]imidazo[1,5-a][1,2,4]triazolo[4,3-d][1,4]diazepine-10-carboxylate and vehicle control (see FIG. 5).

[5] = probe test 24 hr after training
[6] = vehicle then tracer 1 μg/kg i.v.

CC1(C)CC(=O)c2c(SCCCO)sc(-c3nccs3)c2C1 [6,6 dimethyl-3-(3-hydroxypropyl)thio-1-(thiazol-2-yl)-6,7-dihydro-2-benzothiophen-4(5H)-one]
learning of the water maze task (aged-impaired (AI) rats [1]): improved the learning | long-term memory in the water maze task (aged-impaired (AI) rats [1]): improved the long-term memory | number of crossings of target annulus compared to opposite annulus (aged-impaired (AI) rats [1]; [5]): more often | time in target annulus compared to opposite annulus (aged-impaired (AI) rats [1]; [5]): spent significantly more time in the target annulus | time to find the escape platform (escape latency) (aged-impaired (AI) rats [1]; training block 1): about 24 seconds | time to find the escape platform (escape latency) (aged-impaired (AI) rats [1]; training block 4): about 9.6 seconds

Cc1nc(-c2ncn3c2Cc2c(C)nnn2-c2cc(F)ccc2-3)no1 [Compound 145]
activation at 0.1 µM (GABAA receptors (α5β2γ2)): > 50% | Ki (α5β3γ2 GABAA receptors): < 99 nM

CC(C)c1nc(-c2ncn3c2Cn2c(COc4ccccc4)nnc2-c2cc(F)ccc2-3)no1 [Compound 147]
activation at 0.1 µM (GABAA receptors (α5β2γ2)): 20 to 49% | Ki (α5β3γ2 GABAA receptors): < 99 nM

Cc1nc(-c2ncn3c2Cn2c(COc4ccccc4)nnc2-c2cc(F)ccc2-3)no1 [Compound 148]
activation at 0.1 µM (GABAA receptors (α5β2γ2)): 20 to 49% | Ki (α5β3γ2 GABAA receptors): < 99 nM

Cc1nnn2c1Cc1c(-c3noc(C(C)C)n3)ncn1-c1ccc(F)cc1-2 [Compound 149]
activation at 0.1 µM (GABAA receptors (α5β2γ2)): > 50% | Ki (α5β3γ2 GABAA receptors): < 99 nM

Cc1nnn2c1Cc1c(C(=O)OC(C)C)ncn1-c1ccccc1-2 [Compound 153]
activation at 0.1 µM (GABAA receptors (α5β2γ2)): 20 to 49% | Ki (α5β3γ2 GABAA receptors): < 99 nM

CCc1nc(-c2ncn3c2Cc2c(C)nnn2-c2cc(F)ccc2-3)no1 [Compound 155]
activation at 0.1 µM (GABAA receptors (α5β2γ2)): 20 to 49% | Ki (α5β3γ2 GABAA receptors): < 99 nM

CCc1nc(-c2ncn3c2Cn2c(COc4ccccc4)nnc2-c2cc(F)ccc2-3)no1 [Compound 158]
activation at 0.1 µM (GABAA receptors (α5β2γ2)): 20 to 49% | Ki (α5β3γ2 GABAA receptors): < 99 nM

Cc1nnn2c1Cc1c(-c3noc(C(C)(C)C)n3)ncn1-c1ccc(F)cc1-2 [Compound 160]
activation at 0.1 µM (GABAA receptors (α5β2γ2)): > 50% | Ki (α5β3γ2 GABAA receptors): < 99 nM

COc1ccc2c(c1)-c1nnc(COc3ccccc3)n1Cc1c(-c3noc(C)n3)ncn1-2 [Compound 162]
activation at 0.1 µM (GABAA receptors (α5β2γ2)): 20 to 49% | Ki (α5β3γ2 GABAA receptors): < 99 nM

COc1ccc2c(c1)-c1nnc(COc3ccc(F)cc3)n1Cc1c(-c3noc(C)n3)ncn1-2 [Compound 163]
activation at 0.1 µM (GABAA receptors (α5β2γ2)): 20 to 49% | Ki (α5β3γ2 GABAA receptors): < 99 nM

COc1ccc2c(c1)-c1nnc(COc3ccccc3)n1Cc1c(-c3noc(C(C)C)n3)ncn1-2 [Compound 171]
activation at 0.1 µM (GABAA receptors (α5β2γ2)): > 50% | Ki (α5β3γ2 GABAA receptors): < 99 nM

COc1ccc2c(c1)-c1nnc(COc3ccc(F)cc3)n1Cc1c(-c3noc(C(C)C)n3)ncn1-2 [Compound 172]
activation at 0.1 µM (GABAA receptors (α5β2γ2)): > 50% | Ki (α5β3γ2 GABAA receptors): < 99 nM

CCOCc1nnc2n1Cc1c(-c3noc(C(C)C)n3)ncn1-c1ccc(OC)cc1-2 [Compound 173]
activation at 0.1 µM (GABAA receptors (α5β2γ2)): > 50% | Ki (α5β3γ2 GABAA receptors): < 99 nM

COc1ccc2c(c1)-c1nnc(COc3ccccc3F)n1Cc1c(-c3noc(C(C)C)n3)ncn1-2 [Compound 174]
activation at 0.1 µM (GABAA receptors (α5β2γ2)): > 50% | Ki (α5β3γ2 GABAA receptors): < 99 nM

COc1ccc2c(c1)-c1nnc(COc3ccccc3Cl)n1Cc1c(-c3noc(C(C)C)n3)ncn1-2 [Compound 175]
activation at 0.1 µM (GABAA receptors (α5β2γ2)): 20 to 49% | Ki (α5β3γ2 GABAA receptors): < 99 nM

COc1ccc2c(c1)-c1nnc(COc3cccnc3)n1Cc1c(-c3noc(C(C)C)n3)ncn1-2 [Compound 176]
activation at 0.1 µM (GABAA receptors (α5β2γ2)): > 50% | Ki (α5β3γ2 GABAA receptors): < 99 nM

COc1ccc2c(c1)-c1nnc(COc3cccc4ccccc34)n1Cc1c(-c3noc(C(C)C)n3)ncn1-2 [Compound 177]
activation at 0.1 µM (GABAA receptors (α5β2γ2)): > 50% | Ki (α5β3γ2 GABAA receptors): < 99 nM

COc1ccc2c(c1)-c1nnc(COC3CCCC3)n1Cc1c(-c3noc(C(C)C)n3)ncn1-2 [Compound 178]
activation at 0.1 µM (GABAA receptors (α5β2γ2)): > 50% | Ki (α5β3γ2 GABAA receptors): < 99 nM

COc1ccc2c(c1)-c1nnc(COc3cccc(F)c3)n1Cc1c(-c3noc(C(C)C)n3)ncn1-2 [Compound 179]
activation at 0.1 µM (GABAA receptors (α5β2γ2)): > 50% | Ki (α5β3γ2 GABAA receptors): < 99 nM

CCOC(=O)c1ncn2c1Cn1c(C)nnc1-c1cc(OC)ccc1-2 [Ethyl 3-methoxy-7-methyl-9H-benzo[f]imidazo[1,5-a][1,2,4]tri]
effect on Ro 15-4513 binding in hippocampus [2]: blocked the binding | effect on cerebellum levels of Ro 15-4513 [3]: did not affect binding

CCOC(=O)c1ncn2c1CN(C)C(=O)c1cc(N=[N+]=[N-])ccc1-2 [Ro 15-4513]
Ro 15-4513 level in hippocampus compared with cerebellum (GABAAα5 receptor; tracer 1 μg/kg i.v.): > 5 fold | level of Ro 15-4513 in cerebellum (GABAAα5 receptor; [6]): 0.36 ± 0.02 ng/g | level of Ro 15-4513 in hippocampus (GABAAα5 receptor; [6]): 1.93 ± 0.05 ng/g

C#Cc1ccc2c(c1)C(c1ccccc1F)=N[C@H](C)c1c(C(=O)OCC)ncn1-2 [SH-053-2′F—R—CH3]
increased locomotor response to amphetamine in MAM-treated rats (MAM-treated rats; rat, in vivo): is reduced | cortical-evoked responses of HPC neurons (MAM-treated rats; saline-treated and MAM-treated animals): diminished cortical-evoked responses

CCOC(=O)c1ncn2c1Cn1c(C)nnc1-c1cc(OC)ccc1-2 [ethyl 3-methoxy-7-methyl-9H-benzo[f]imidazo[1,5-a][1,2,4]tri]
effect on Ro 15-4513 binding in hippocampus [2]: reduced Ro 15-4513 binding in hippocampus | α5-containing GABAA receptor occupancy ([2]; 10 mg/kg): > 90% | effect on cerebellum levels of Ro 15-4513 [3]: without affecting | memory performance relative to vehicle control (aged-impaired (AI) rats [4]; 3 mg/kg, t(7)=4.13, p=0.004, or t(7)=3.08, p=0.018): significantly improved memory performance | memory performance relative to vehicle control (aged-impaired (AI) rats [4]; 10 mg/kg, t(7)=2.82, p=0.026): significantly improved memory performance
